Earlier results, collected in article PMC7604311, “Caprine Bactenecins as Promising Tools for Developing New Antimicrobial and Antitumor Drugs” (Frontiers in Cellular and Infection Microbiology, 2020).

Assays:
Set-up in all cases: key to Susceptibility category: R – resistant; I – intermediate; S – susceptible
Settings in all cases: initial susceptibility testing of the clinical isolate; ref supplying institutions; cited from earlier work
[1] = tested on: K. pneumoniae ESBL 344/17;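 also: each antibiotic is scored as S (susceptible), I (intermediate) or R (resistant), with its MIC listed alongside, in a susceptibility profile of the clinical isolate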
P. aeruginosa MDR 522/17 = tested on: P. aeruginosa MDR 522/17
E. coli ESBL 521/17 = tested on: E. coli ESBL 521/17
A. baumannii 7226/16 = tested on: A. baumannii 7226/16
Text: page 1: Supplementary Material Supplementary Table 1. Susceptibility profiles of tested clinical isolates of bacteria. Gram-negative: Gram-positive: antibiotic E. coli A. baumannii P. aeruginosa K. pneumoniae antibiotic S. aureus ESBL 521/17 7226/16 MDR 522/17 ESBL 344/17 1399/17 AMP* R [≥32] R [≥32 ] R [≥32 ] R [≥32] AMP* R [≥32 ] AMC R [16] - - S [≤2] AMC - CTX R [≥64] - - S [≤1] AMX - CAZ R [≥64] - R [≥64] S [≤1] AZM R [≥4] FEP R [≥64] - R [≥64] S [≤1] VAN S [≤2] ATM R [≥64] - - S [≤1] DOX I [2] IPM S [≤1] R [≥16] I [8] S [≤1] CLI I [2] MEM S [≤0.25 ] R [≥32 ] R [≥16] S [≤0.25] MEM I [4] AM ...

S. aureus 1399/17 = tested on: S. aureus 1399/17

## CO/N=C(\C(=O)N[C@@H]1C(=O)N2C(C(=O)[O-])=C(C[N+]3(C)CCCC3)CS[C@H]12)c1csc(N)n1 [FEP, cefepime]
[1]
  MIC of antibiotic: ≤ 1 µg/mL
  Susceptibility category: S
P. aeruginosa MDR 522/17
  MIC of antibiotic: ≥ 64 µg/mL
  Susceptibility category: R
E. coli ESBL 521/17
  MIC of antibiotic: ≥ 64 µg/mL
  Susceptibility category: R

## C[C@@H](O)[C@H]1C(=O)N2C(C(=O)O)=C(S[C@@H]3CN[C@H](C(=O)N(C)C)C3)[C@H](C)[C@H]12 [MEM, meropenem]
A. baumannii 7226/16
  MIC of antibiotic: ≥ 32 µg/mL
  Susceptibility category: R
S. aureus 1399/17
  MIC of antibiotic: 4 µg/mL
  Susceptibility category: I
[1]
  MIC of antibiotic: ≤ 0.25 µg/mL
  Susceptibility category: S
P. aeruginosa MDR 522/17
  MIC of antibiotic: ≥ 16 µg/mL
  Susceptibility category: R
E. coli ESBL 521/17
  MIC of antibiotic: ≤ 0.25 µg/mL
  Susceptibility category: S

## O=C1CN(/N=C/c2ccc([N+](=O)[O-])o2)C(=O)N1 [NIT, nitrofurantoin]
E. coli ESBL 521/17
  MIC of antibiotic: 128 µg/mL
  Susceptibility category: R

## CO/N=C(\C(=O)N[C@@H]1C(=O)N2C(C(=O)O)=C(COC(C)=O)CS[C@H]12)c1csc(N)n1 [CTX, cefotaxime]
[1]
  MIC of antibiotic: ≤ 1 µg/mL
  Susceptibility category: S
E. coli ESBL 521/17
  MIC of antibiotic: ≥ 64 µg/mL
  Susceptibility category: R

## CCN[C@@H]1C[C@H](N)[C@@H](O[C@H]2OC(CN)=CC[C@H]2N)[C@H](O)[C@H]1O[C@H]1OC[C@](C)(O)[C@H](NC)[C@H]1O [NET, netilmicin]
[1]
  MIC of antibiotic: ≤ 1 µg/mL
  Susceptibility category: S
P. aeruginosa MDR 522/17
  MIC of antibiotic: ≥ 32 µg/mL
  Susceptibility category: R
E. coli ESBL 521/17
  MIC of antibiotic: 8 µg/mL
  Susceptibility category: R

## CC[C@H]1OC(=O)[C@H](C)[C@@H](O[C@H]2C[C@@](C)(OC)[C@@H](O)[C@H](C)O2)[C@H](C)[C@@H](O[C@@H]2O[C@H](C)C[C@H](N(C)C)[C@H]2O)[C@](C)(O)C[C@@H](C)CN(C)[C@H](C)[C@@H](O)[C@]1(C)O [AZM, azithromycin]
S. aureus 1399/17
  MIC of antibiotic: ≥ 4 µg/mL
  Susceptibility category: R

## NCC[C@H](O)C(=O)N[C@@H]1C[C@H](N)[C@@H](O[C@H]2O[C@H](CN)[C@@H](O)[C@H](O)[C@H]2O)[C@H](O)[C@H]1O[C@H]1O[C@H](CO)[C@@H](O)[C@H](N)[C@H]1O [AMK, amikacin]
A. baumannii 7226/16
  MIC of antibiotic: 8 µg/mL
  Susceptibility category: I
S. aureus 1399/17
  MIC of antibiotic: ≥ 64 µg/mL
  Susceptibility category: R
[1]
  MIC of antibiotic: ≤ 2 µg/mL
  Susceptibility category: S
P. aeruginosa MDR 522/17
  MIC of antibiotic: 4 µg/mL
  Susceptibility category: I
E. coli ESBL 521/17
  MIC of antibiotic: 16 µg/mL
  Susceptibility category: I

## C[C@@H]1O[C@@H]1P(=O)(O)O [FOF, fosfomycin]
[1]
  MIC of antibiotic: ≤ 16 µg/mL
  Susceptibility category: S
E. coli ESBL 521/17
  MIC of antibiotic: ≤ 16 µg/mL
  Susceptibility category: S

## trimethoprim–sulfamethoxazole [SXT]
A. baumannii 7226/16
  MIC of antibiotic: ≥ 320 µg/mL
  Susceptibility category: R
[1]
  MIC of antibiotic: ≤ 20 µg/mL
  Susceptibility category: S
E. coli ESBL 521/17
  MIC of antibiotic: ≥ 320 µg/mL
  Susceptibility category: R

## CN(C)c1cc(NC(=O)CNC(C)(C)C)c(O)c2c1C[C@H]1C[C@H]3[C@H](N(C)C)C(O)=C(C(N)=O)C(=O)[C@@]3(O)C(O)=C1C2=O [TGC, tigecycline]
A. baumannii 7226/16
  MIC of antibiotic: 4 µg/mL
  Susceptibility category: I

## C[C@H]1c2cccc(O)c2C(=O)C2=C(O)[C@]3(O)C(=O)C(C(N)=O)=C(O)[C@@H](N(C)C)[C@@H]3[C@@H](O)[C@@H]21 [DOX, doxycycline]
S. aureus 1399/17
  MIC of antibiotic: 2 µg/mL
  Susceptibility category: I

## CC(C)(O/N=C(\C(=O)N[C@@H]1C(=O)N2C(C(=O)[O-])=C(C[n+]3ccccc3)CS[C@H]12)c1csc(N)n1)C(=O)O [CAZ, ceftazidime]
[1]
  MIC of antibiotic: ≤ 1 µg/mL
  Susceptibility category: S
P. aeruginosa MDR 522/17
  MIC of antibiotic: ≥ 64 µg/mL
  Susceptibility category: R
E. coli ESBL 521/17
  MIC of antibiotic: ≥ 64 µg/mL
  Susceptibility category: R

## CC1COc2c(N3CCN(C)CC3)c(F)cc3c(=O)c(C(=O)O)cn1c23 (stereo not shown) [OFL, ofloxacin]
S. aureus 1399/17
  MIC of antibiotic: ≥ 32 µg/mL
  Susceptibility category: R

## ampicillin-sulbactam [SAM]
A. baumannii 7226/16
  MIC of antibiotic: 16 µg/mL
  Susceptibility category: I

## CC1(C)S[C@@H]2[C@H](NC(=O)[C@H](N)c3ccccc3)C(=O)N2[C@H]1C(=O)O [AMP*, ampicillin]
A. baumannii 7226/16
  MIC of antibiotic: ≥ 32 µg/mL
  Susceptibility category: R
S. aureus 1399/17
  MIC of antibiotic: ≥ 32 µg/mL
  Susceptibility category: R
[1]
  MIC of antibiotic: ≥ 32 µg/mL
  Susceptibility category: R
P. aeruginosa MDR 522/17
  MIC of antibiotic: ≥ 32 µg/mL
  Susceptibility category: R
E. coli ESBL 521/17
  MIC of antibiotic: ≥ 32 µg/mL
  Susceptibility category: R

## Cc1onc(-c2ccccc2)c1C(=O)N[C@@H]1C(=O)N2[C@@H]1SC(C)(C)[C@@H]2C(=O)O [OX, oxacillin]
S. aureus 1399/17
  MIC of antibiotic: ≥ 32 µg/mL
  Susceptibility category: R

## CC[C@H]1OC(=O)[C@H](C)[C@@H](O[C@H]2C[C@@](C)(OC)[C@@H](O)[C@H](C)O2)[C@H](C)[C@@H](O[C@@H]2O[C@H](C)C[C@H](N(C)C)[C@H]2O)[C@](C)(O)C[C@@H](C)/C(=N\OCOCCOC)[C@H](C)[C@@H](O)[C@]1(C)O [RXM, roxithromycin]
S. aureus 1399/17
  MIC of antibiotic: 2 µg/mL
  Susceptibility category: I

## amoxicillin–clavulanic acid [AMC]
[1]
  MIC of antibiotic: ≤ 2 µg/mL
  Susceptibility category: S
E. coli ESBL 521/17
  MIC of antibiotic: 16 µg/mL
  Susceptibility category: R

## CCC[C@@H]1C[C@@H](C(=O)N[C@@H]([C@H]2O[C@H](SC)[C@H](O)[C@@H](O)[C@H]2O)[C@H](C)Cl)N(C)C1 [CLI, clindamycin]
S. aureus 1399/17
  MIC of antibiotic: 2 µg/mL
  Susceptibility category: I

## colistin [CST]
[1]
  MIC of antibiotic: ≤ 0.5 µg/mL
  Susceptibility category: S
P. aeruginosa MDR 522/17
  MIC of antibiotic: ≥ 16 µg/mL
  Susceptibility category: R
E. coli ESBL 521/17
  MIC of antibiotic: ≤ 0.5 µg/mL
  Susceptibility category: S

## C[C@@H](O)[C@H]1C(=O)N2C(C(=O)O)=C(SCCN=CN)C[C@H]12 [IPM, imipenem]
A. baumannii 7226/16
  MIC of antibiotic: ≥ 16 µg/mL
  Susceptibility category: R
[1]
  MIC of antibiotic: ≤ 1 µg/mL
  Susceptibility category: S
P. aeruginosa MDR 522/17
  MIC of antibiotic: 8 µg/mL
  Susceptibility category: I
E. coli ESBL 521/17
  MIC of antibiotic: ≤ 1 µg/mL
  Susceptibility category: S

## C[C@H]1[C@H](NC(=O)/C(=N\OC(C)(C)C(=O)O)c2csc(N)n2)C(=O)N1S(=O)(=O)O [ATM, aztreonam]
[1]
  MIC of antibiotic: ≤ 1 µg/mL
  Susceptibility category: S
E. coli ESBL 521/17
  MIC of antibiotic: ≥ 64 µg/mL
  Susceptibility category: R

## CN[C@H](CC(C)C)C(=O)N[C@H]1C(=O)N[C@@H](CC(N)=O)C(=O)N[C@H]2C(=O)N[C@H]3C(=O)N[C@H](C(=O)N[C@H](C(=O)O)c4cc(O)cc(O)c4-c4cc3ccc4O)[C@H](O)c3ccc(c(Cl)c3)Oc3cc2cc(c3O[C@@H]2O[C@H](CO)[C@@H](O)[C@H](O)[C@H]2O[C@H]2C[C@](C)(N)[C@H](O)[C@H](C)O2)Oc2ccc(cc2Cl)[C@H]1O [VAN, vancomycin]
S. aureus 1399/17
  MIC of antibiotic: ≤ 2 µg/mL
  Susceptibility category: S

## C[C@H]1COc2c(N3CCN(C)CC3)c(F)cc3c(=O)c(C(=O)O)cn1c23 [LVX, levofloxacin]
S. aureus 1399/17
  MIC of antibiotic: ≤ 1 µg/mL
  Susceptibility category: S
